According to PubChem BioAssay AID248 (DTP/NCI, 2004):
Inconclusive results and toxic doses are left out. Cut-off read from the data, not from the text of the source: active = T/C of 150% or more; inactive = T/C below 125%.

System: L1210 leukemia ip in BDF1 mice, survival T/C
Assay: NCI In Vivo Anticancer Drug Screen. Data for tumor model L1210 Leukemia (intraperitoneal) in B6D2F1 (BDF1) mice
Conditions: endpoint: mean survival time, higher = longer survival
Outline: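 Transplantable tumor model; survival measured in treated vs vehicle control mice. Value = treated/control.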

[1] = dose: 100.0 mg/kg/injection, schedule: Q01DX001 (ip), vehicle: saline
[2] = dose: 200.0 mg/kg/injection, schedule: Q01DX001 (ip), vehicle: saline
[3] = dose: 400.0 mg/kg/injection, schedule: Q01DX001 (ip), vehicle: saline
[4] = dose: 100.0 mg/kg/injection, schedule: Q01DX009 (ip), vehicle: saline with Tween-80
[5] = dose: 200.0 mg/kg/injection, schedule: Q01DX009 (ip), vehicle: saline with Tween-80
[6] = dose: 400.0 mg/kg/injection, schedule: Q01DX009 (ip), vehicle: saline with Tween-80
[7] = dose: 100.0 mg/kg/injection, schedule: Q01DX009 (ip), vehicle: saline
[8] = dose: 100.0 mg/kg/injection, schedule: Q04DX003 (ip), vehicle: saline
[9] = dose: 200.0 mg/kg/injection, schedule: Q01DX009 (ip), vehicle: saline
[10] = dose: 200.0 mg/kg/injection, schedule: Q04DX003 (ip), vehicle: saline
[11] = dose: 400.0 mg/kg/injection, schedule: Q04DX003 (ip), vehicle: saline
[12] = dose: 50.0 mg/kg/injection, schedule: Q01DX001 (ip), vehicle: saline
[13] = dose: 100.0 mg/kg/injection, schedule: Q01DX009 (ip), vehicle: Klucel (hydroxypropylcellulose) (HPC)
[14] = dose: 200.0 mg/kg/injection, schedule: Q01DX009 (ip), vehicle: Klucel (hydroxypropylcellulose) (HPC)
[15] = dose: 400.0 mg/kg/injection, schedule: Q01DX009 (ip), vehicle: Klucel (hydroxypropylcellulose) (HPC)
[16] = dose: 100.0 mg/kg/injection, schedule: Q04DX003 (ip), vehicle: saline with Tween-80
[17] = dose: 50.0 mg/kg/injection, schedule: Q01DX009 (ip), vehicle: saline
[18] = dose: 100.0 mg/kg/injection, schedule: Q04DX003 (ip), vehicle: Klucel (hydroxypropylcellulose) (HPC)
[19] = dose: 200.0 mg/kg/injection, schedule: Q04DX003 (ip), vehicle: Klucel (hydroxypropylcellulose) (HPC)
[20] = dose: 400.0 mg/kg/injection, schedule: Q04DX003 (ip), vehicle: Klucel (hydroxypropylcellulose) (HPC)

Measured: T/C

COc1ccc(CC(=O)N(CCNS(=O)(=O)c2ccc(C)cc2)CCOC(C)=O)cc1
inactive: dose: 100.0 mg/kg/injection, schedule: Q01DX001 (ip), vehicle: water 104 % of control | dose: 200.0 mg/kg/injection, schedule: Q01DX001 (ip), vehicle: water 107 % of control | dose: 400.0 mg/kg/injection, schedule: Q01DX001 (ip), vehicle: water 96 % of control

CC(CC(=O)c1ccc(F)cc1)N1CCCCC1 (centres undefined)
inactive: dose: 100.0 mg/kg/injection, schedule: Q01DX001 (ip), vehicle: carboxymethylcellulose (CMC) 95 % of control | dose: 200.0 mg/kg/injection, schedule: Q01DX001 (ip), vehicle: carboxymethylcellulose (CMC) 98 % of control

CC1(N)COP(=O)(NCc2ccccc2)OC1 (centres undefined)
inactive: [1] 95 % of control | [2] 103 % of control | [3] 103 % of control

CCCCCCCCCC[Se]C#N
inactive: dose: 5.0 mg/kg/injection, schedule: Q01DX001 (ip), vehicle: saline 112 % of control | dose: 10.0 mg/kg/injection, schedule: Q01DX001 (ip), vehicle: saline 114 % of control

CC(=O)NC1CCC(/C=C(\C#N)C2CCC([N+](=O)[O-])CC2)CC1 (centres undefined)
inactive: dose: 25.0 mg/kg/injection, schedule: Q04DX002 (ip), vehicle: saline with Tween-80 97 % of control | dose: 50.0 mg/kg/injection, schedule: Q04DX002 (ip), vehicle: saline with Tween-80 94 % of control | dose: 100.0 mg/kg/injection, schedule: Q04DX002 (ip), vehicle: saline with Tween-80 94 % of control | dose: 200.0 mg/kg/injection, schedule: Q04DX002 (ip), vehicle: saline with Tween-80 86 % of control | dose: 400.0 mg/kg/injection, schedule: Q04DX002 (ip), vehicle: saline with Tween-80 104 % of control

COc1ccc(C2CCc3cc4c(cc3C2=O)OCO4)cc1OC (centres undefined)
inactive: [4] 98 % of control | [5] 98 % of control | [6] 98 % of control

O=C(O)CNCc1ccc(F)cc1
inactive: [7] 107 % of control | [8] 109 % of control | [9] 108 % of control | [10] 105 % of control | dose: 400.0 mg/kg/injection, schedule: Q01DX009 (ip), vehicle: saline 107 % of control | [11] 102 % of control

CS(=O)(=O)OCCN(CCOS(C)(=O)=O)c1ccc([N+](=O)[O-])c(C(F)(F)F)c1
inactive: [12] 94 % of control | [1] 96 % of control | [2] 96 % of control | [3] 94 % of control

O=S(=O)(O)c1cc(O)c(S(=O)(=O)O)cc1O
inactive: [8] 98 % of control | [10] 92 % of control | [11] 110 % of control

C=CC1CN2CCC1CC2C(=O)c1ccnc2ccccc12 (centres undefined)
inactive: [12] 101 % of control | [1] 104 % of control | [2] 106 % of control | [3] 98 % of control

COc1ccccc1/C=N/NC(=O)CCCCCCCCC(=O)N/N=C/c1ccccc1OC
inactive: [13] 95 % of control | [14] 88 % of control | [15] 88 % of control

O=C1CC(NC(=O)OCc2ccccc2)C(=O)O1 (centres undefined)
inactive: [4] 96 % of control | [8] 103 % of control | [5] 93 % of control | [10] 97 % of control | [6] 94 % of control | [11] 95 % of control

CCN(CC)CCCC(C)Nc1ccnc2c1ccc1ccccc12 (centres undefined)
inactive: [12] 98 % of control | [1] 101 % of control | [2] 106 % of control | [3] 112 % of control

Cc1[nH]c(C(=O)OCc2ccccc2)c(C)c1C(=O)OCc1ccccc1
inactive: dose: 12.0 mg/kg/injection, schedule: Q01DX001 (ip), vehicle: Klucel (hydroxypropylcellulose) (HPC) 94 % of control | dose: 25.0 mg/kg/injection, schedule: Q01DX001 (ip), vehicle: Klucel (hydroxypropylcellulose) (HPC) 100 % of control | dose: 50.0 mg/kg/injection, schedule: Q01DX001 (ip), vehicle: Klucel (hydroxypropylcellulose) (HPC) 97 % of control | dose: 200.0 mg/kg/injection, schedule: Q01DX001 (ip), vehicle: saline with Tween-80 102 % of control | dose: 400.0 mg/kg/injection, schedule: Q01DX001 (ip), vehicle: saline with Tween-80 102 % of control

CCOC(=O)C1CNc2ccccc2N1 (centres undefined)
inactive: dose: 25.0 mg/kg/injection, schedule: Q01DX009 (ip), vehicle: saline with Tween-80 93 % of control | dose: 50.0 mg/kg/injection, schedule: Q01DX009 (ip), vehicle: saline with Tween-80 110 % of control | [16] 105 % of control

C=C(Cl)C[N+]12CN3CN(CN(C3)C1)C2
inactive: dose: 12.5 mg/kg/injection, schedule: Q01DX009 (ip), vehicle: saline 108 % of control | dose: 12.5 mg/kg/injection, schedule: Q04DX003 (ip), vehicle: saline 102 % of control | dose: 25.0 mg/kg/injection, schedule: Q01DX009 (ip), vehicle: saline 101 % of control | dose: 25.0 mg/kg/injection, schedule: Q04DX003 (ip), vehicle: saline 104 % of control | [17] 111 % of control | dose: 50.0 mg/kg/injection, schedule: Q04DX003 (ip), vehicle: saline 102 % of control

Cc1cc2c(cn1)C(=O)C=CC2=O
inactive: dose: 5.0 mg/kg/injection, schedule: Q01DX001 (ip), vehicle: carboxymethylcellulose (CMC) 94 % of control | dose: 10.0 mg/kg/injection, schedule: Q01DX001 (ip), vehicle: carboxymethylcellulose (CMC) 96 % of control

CCSc1nc(N)c(C(N)=O)cc1C#N
inactive: [13] 95 % of control | [18] 101 % of control | [14] 95 % of control | [19] 98 % of control | [20] 97 % of control

CCCCOC(=O)c1ccc(OC(=O)NC)cc1
inactive: [4] 107 % of control | [5] 101 % of control | [6] 112 % of control

CCC1(O)C2CCCC1CCC2 (centres undefined)
inactive: [4] 97 % of control | [18] 97 % of control | [5] 94 % of control | [19] 92 % of control | [6] 97 % of control | [20] 97 % of control

CC(C)(C)C(N)=O
inactive: [13] 92 % of control | dose: 100.0 mg/kg/injection, schedule: Q04DX003 (ip), vehicle: other 94 % of control | [14] 90 % of control | dose: 200.0 mg/kg/injection, schedule: Q04DX003 (ip), vehicle: other 98 % of control | [15] 95 % of control | dose: 400.0 mg/kg/injection, schedule: Q04DX003 (ip), vehicle: other 98 % of control

Cn1c2ccccc2c(=O)c2cc([N+](=O)[O-])ccc21
inactive: [16] 93 % of control | dose: 200.0 mg/kg/injection, schedule: Q04DX003 (ip), vehicle: saline with Tween-80 97 % of control | dose: 400.0 mg/kg/injection, schedule: Q04DX003 (ip), vehicle: saline with Tween-80 93 % of control

COc1cc(CC2c3ccccc3CC[N+]2(C)C)c(Oc2cc(CC3c4ccccc4CC[N+]3(C)C)ccc2OC)cc1OC (centres undefined)
inactive: dose: 0.78 mg/kg/injection, schedule: Q01DX009 (ip), vehicle: Klucel (hydroxypropylcellulose) (HPC) 103 % of control | dose: 1.56 mg/kg/injection, schedule: Q01DX009 (ip), vehicle: Klucel (hydroxypropylcellulose) (HPC) 97 % of control | dose: 3.13 mg/kg/injection, schedule: Q01DX009 (ip), vehicle: Klucel (hydroxypropylcellulose) (HPC) 100 % of control

COc1cc(C=O)cc(C=O)c1O
inactive: dose: 25.0 mg/kg/injection, schedule: Q01DX001 (ip), vehicle: saline with Tween-80 96 % of control | dose: 50.0 mg/kg/injection, schedule: Q01DX001 (ip), vehicle: saline with Tween-80 104 % of control | dose: 100.0 mg/kg/injection, schedule: Q01DX001 (ip), vehicle: saline with Tween-80 90 % of control

O=c1sc(N=Nc2ccccc2)nn1-c1ccccc1
inactive: [17] 91 % of control | [7] 88 % of control | [9] 93 % of control

CCOC(=O)c1[nH]c(-c2ccc(OC)cc2)c(C(=O)OCC)c1-c1ccccc1
inactive: dose: 100.0 mg/kg/injection, schedule: Q01DX001 (ip), vehicle: Klucel (hydroxypropylcellulose) (HPC) 88 % of control | dose: 200.0 mg/kg/injection, schedule: Q01DX001 (ip), vehicle: Klucel (hydroxypropylcellulose) (HPC) 108 % of control | dose: 400.0 mg/kg/injection, schedule: Q01DX001 (ip), vehicle: Klucel (hydroxypropylcellulose) (HPC) 114 % of control
